Source: PMC8148378 (Chemical Science, 2019)
In brackets after ≈: the same amount, converted by molar mass.

Tests used:
E. coli gyrase [1] = target: T1, E. coli gyrase (Escherichia coli, UniProt P0AES4); assay: DNA gyrase supercoiling assay, method b; format: biochemical; settings: compared to 22
E. coli gyrase [2] = target: T1, E. coli gyrase; assay: DNA gyrase supercoiling assay, method a; format: biochemical
S. marcescens DSM-30121 = assay: MIC determination, larger panel; format: cell-based; settings: Serratia marcescens, DSM30121, read-out: MIC S. marcescens
[3] = test system: P. aeruginosa ESBL 2 DSM-46316; assay: MIC determination, larger panel; format: cell-based; settings: Pseudomonas aeruginosa, DSM46316, read-out: MIC P. aeruginosa ESBL 2
E. coli WT DSM-1116 = assay: MIC determination; format: cell-based; settings: Escherichia coli, DSM1116, read-out: MIC E. coli WT, DSM-1116
[4] = test system: P. aeruginosa ESBL 1 DSM-24600; assay: MIC determination, larger panel; format: cell-based; settings: Pseudomonas aeruginosa, DSM24600, read-out: MIC P. aeruginosa ESBL 1
P. aeruginosa WT PA14 = assay: MIC determination; format: cell-based, Pseudomonas aeruginosa; settings: for MIC: Pseudomonas aeruginosa, PA14, read-out: MIC P. aeruginosa WT, PA14
A. baumannii DSM-30008 = assay: MIC determination, larger panel; format: cell-based; settings: Acinetobacter baumannii, DSM30008, read-out: MIC A. baumannii, DSM-30008
E. cloacae DSM-30054 = assay: MIC determination, larger panel; format: cell-based; settings: Enterobacter cloacae, DSM30054, read-out: MIC E. cloacae
S. aureus ATCC29213 = assay: MIC determination; format: cell-based; settings: Staphylococcus aureus, ATCC29213, read-out: MIC S. aureus, ATCC29213
P. mirabilis DSM-4479 = assay: MIC determination, larger panel; format: cell-based; settings: Proteus mirabilis, DSM4479, read-out: MIC P. mirabilis
K. pneumoniae DSM-30104 = assay: MIC determination, larger panel; format: cell-based; settings: Klebsiella pneumoniae, DSM30104, read-out: MIC K. pneumoniae
E. coli ΔtolC = assay: MIC determination; format: cell-based; settings: Escherichia coli, read-out: MIC E. coli ΔtolC
E. faecalis ATCC-29212 = assay: MIC determination, larger panel; format: cell-based; settings: Enterococcus faecalis, ATCC29212, read-out: MIC E. faecalis
E. coli WT-3 = assay: MIC determination, larger panel; format: cell-based; settings: Escherichia coli, WT3, read-out: MIC E. coli WT-3
[5] = test system: P. aeruginosa ΔmexAB (PA14ΔmexAB); assay: MIC determination; format: cell-based; settings: Pseudomonas aeruginosa, read-out: MIC P. aeruginosa ΔmexAB
E. aerogenes DSM-30053 = assay: MIC determination, larger panel; format: cell-based, Enterobacter aerogenes; settings: Klebsiella aerogenes, DSM30053, read-out: MIC E. aerogenes
[6] = Single dosing pharmacokinetic study; format: in vivo, male CD-1 outbred mice; settings: 5 mg/kg, plasma
In vivo tolerance study = assay: In vivo tolerance study; design: species or system male CD-1 mice
E. coli ATCC25922 = assay: Neutropenic murine thigh infection model, i.v. administration; format: in vivo, male ICR mice
E. coli strain ATCC25922 = assay: Neutropenic thigh infection model, s.c. and i.v. administration; format: in vivo, neutropenic CD-1 mice; settings: 24 h after infection
[7] = as above; format: in vivo, neutropenic CD-1 mice; settings: male, CD-1, mouse, muscle, other: intravenous then subcutaneous
P. dispersa = assay: MIC against the AlbD producer; format: cell-based; settings: Pantoea dispersa, read-out: MIC P. dispersa
[8] = format: physicochemical

T1 sequence (P0AES4 whole entry): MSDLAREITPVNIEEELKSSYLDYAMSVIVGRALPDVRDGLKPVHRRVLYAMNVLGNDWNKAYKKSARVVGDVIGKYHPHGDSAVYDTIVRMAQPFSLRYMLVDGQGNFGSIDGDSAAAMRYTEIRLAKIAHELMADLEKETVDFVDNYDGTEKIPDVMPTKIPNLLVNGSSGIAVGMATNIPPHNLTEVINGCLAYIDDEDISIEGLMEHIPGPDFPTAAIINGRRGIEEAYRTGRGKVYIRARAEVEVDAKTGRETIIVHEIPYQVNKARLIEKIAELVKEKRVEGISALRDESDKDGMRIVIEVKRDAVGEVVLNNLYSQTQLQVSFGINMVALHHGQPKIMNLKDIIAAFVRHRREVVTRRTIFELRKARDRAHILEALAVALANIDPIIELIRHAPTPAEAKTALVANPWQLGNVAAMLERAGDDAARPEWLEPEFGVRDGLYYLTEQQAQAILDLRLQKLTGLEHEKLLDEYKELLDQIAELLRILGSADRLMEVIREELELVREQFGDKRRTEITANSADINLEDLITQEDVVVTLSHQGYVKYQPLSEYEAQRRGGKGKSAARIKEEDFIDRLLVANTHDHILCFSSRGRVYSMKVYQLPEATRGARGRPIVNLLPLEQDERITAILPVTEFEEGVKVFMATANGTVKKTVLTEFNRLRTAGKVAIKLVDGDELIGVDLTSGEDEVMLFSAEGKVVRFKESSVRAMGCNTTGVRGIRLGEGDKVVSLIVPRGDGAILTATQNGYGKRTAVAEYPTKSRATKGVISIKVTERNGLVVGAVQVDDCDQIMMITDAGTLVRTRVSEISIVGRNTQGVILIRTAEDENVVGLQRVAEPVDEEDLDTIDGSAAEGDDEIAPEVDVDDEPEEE

## Cn1cc(NC(=O)C(CC(N)=O)NC(=O)c2ccc(NC(=O)c3ccc(C#N)cc3)cc2)cc1-c1nc2ccc(C(=O)Nc3ccc(C(=O)O)cc3)c(O)c2[nH]1 (stereo not drawn) [Compound 56]
E. coli gyrase [1]
  fold decrease of gyrase inhibition: approximately 100 fold
E. coli gyrase [2]
  IC50: 10.9 µM

## CC(C)Oc1c(NC(=O)c2ccc(NC(=O)c3ccc(NC(=O)[C@H](CC(N)=O)NC(=O)c4ccc(NC(=O)c5ccc(C#N)s5)cc4)cc3)c(OC(C)C)c2O)ccc(C(=O)O)c1O [Compound 81]
S. marcescens DSM-30121
  MIC: > 64 µg/mL
[3]
  MIC: > 64 µg/mL
E. coli WT DSM-1116
  MIC: 0.125 µg/mL (≈ 0.14 µM)
[4]
  MIC: > 64 µg/mL
P. aeruginosa WT PA14
  MIC: > 64 µg/mL
A. baumannii DSM-30008
  MIC: 1 µg/mL (≈ 1.12 µM)
E. cloacae DSM-30054
  MIC: > 64 µg/mL
S. aureus ATCC29213
  MIC: 0.06 µg/mL (≈ 0.0673 µM)
P. mirabilis DSM-4479
  MIC: > 64 µg/mL
K. pneumoniae DSM-30104
  MIC: 1 µg/mL (≈ 1.12 µM)
E. coli ΔtolC
  MIC: 0.06 µg/mL (≈ 0.0673 µM)
E. faecalis ATCC-29212
  MIC: ≤ 0.03 µg/mL
E. coli WT-3
  MIC: 0.5 µg/mL (≈ 0.561 µM)
[5]
  MIC: 2 µg/mL (≈ 2.24 µM)
E. aerogenes DSM-30053
  MIC: 1 µg/mL (≈ 1.12 µM)

## CC(C)Oc1c(NC(=O)c2ccc(NC(=O)[C@H](CC(N)=O)NC(=O)c3ccc(NC(=O)c4ccc(C#N)s4)cc3)cc2)ccc(C(=O)Nc2ccc(C(=O)O)cc2)c1O [Compound 32]
S. marcescens DSM-30121
  MIC: > 64 µg/mL
E. cloacae DSM-30054
  MIC: > 64 µg/mL
P. mirabilis DSM-4479
  MIC: > 64 µg/mL
K. pneumoniae DSM-30104
  MIC: > 64 µg/mL
E. coli WT-3
  MIC: 1 µg/mL (≈ 1.22 µM)

## CC(C)Oc1c(NC(=O)c2ccc(NC(=O)[C@H](CC(N)=O)NC(=O)c3ccc(NC(=O)c4ccc(C#N)cc4)cc3)cc2)ccc(C(=O)Nc2ccc(C(=O)O)cc2)c1O [Compound 22]
[6]; i.v.
  V/F (volume of distribution): 3.5 L/kg
[6]; male, CD-1, mouse, iv, area under the curve (AUC), 5 mg kg^−1, plasma
  AUC: ~2000 ng·h/mL
S. marcescens DSM-30121
  MIC: > 64 µg/mL
In vivo tolerance study; 5 mg kg^−1 i.v. four times every 6 hours (20 mg kg^−1 per day)
  adverse effects: no adverse effect
In vivo tolerance study; 10 mg kg^−1 i.v. four times every 6 hours (40 mg kg^−1 per day)
  adverse effects: no adverse effect
In vivo tolerance study; 20 mg kg^−1 i.v. four times every 6 hours (80 mg kg^−1 per day)
  adverse effects: one animal in the group treated at 20 mg kg^−1 showed adverse effects
[3]
  MIC: 4 µg/mL (≈ 4.93 µM)
[4]
  MIC: 4 µg/mL (≈ 4.93 µM)
A. baumannii DSM-30008
  MIC: 1 µg/mL (≈ 1.23 µM)
E. cloacae DSM-30054
  MIC: 0.25 µg/mL (≈ 0.308 µM)
P. mirabilis DSM-4479
  MIC: > 64 µg/mL
K. pneumoniae DSM-30104
  MIC: 0.5 µg/mL (≈ 0.616 µM)
E. coli ATCC25922; 20mg/kg/day i.v.
  Log10 variation from vehicle control: −3.97 CFU/g
E. coli ATCC25922; 40mg/kg/day i.v.
  Log10 variation from vehicle control: −5.32 CFU/g
E. coli ATCC25922; 50mg/kg/day i.v.
  Log10 variation from vehicle control: −4.89 CFU/g
E. faecalis ATCC-29212
  MIC: 0.5 µg/mL (≈ 0.616 µM)
E. coli WT-3
  MIC: 0.25 µg/mL (≈ 0.308 µM)
E. coli strain ATCC25922
  reduction of the bacterial load in lung: 3 log units
E. coli strain ATCC25922; all dosing groups, compared to vehicle-treated animals
  bacterial load in kidney: complete bacterial clearance
[7]
  concentration at 24 h: ~100 ng/mL
E. aerogenes DSM-30053
  MIC: 0.06 µg/mL (≈ 0.0739 µM)

## CC(C)Oc1c(-n2cc(-c3ccc(NC(=O)C(CC(N)=O)NC(=O)c4ccc(NC(=O)c5ccc(C#N)cc5)cc4)cc3)nn2)ccc(C(=O)Nc2ccc(C(=O)O)cc2)c1O (stereo not drawn) [Compound 61]
S. marcescens DSM-30121
  MIC: > 64 µg/mL
[3]
  MIC: 16 µg/mL (≈ 19.1 µM)
[4]
  MIC: 16 µg/mL (≈ 19.1 µM)
A. baumannii DSM-30008
  MIC: 8 µg/mL (≈ 9.57 µM)
E. cloacae DSM-30054
  MIC: > 64 µg/mL
P. mirabilis DSM-4479
  MIC: 16 µg/mL (≈ 19.1 µM)
K. pneumoniae DSM-30104
  MIC: > 64 µg/mL
E. coli gyrase [1]
  fold decrease of gyrase inhibition: ca. 20 fold
E. faecalis ATCC-29212
  MIC: 16 µg/mL (≈ 19.1 µM)
E. coli WT-3
  MIC: 16 µg/mL (≈ 19.1 µM)
P. dispersa
  MIC: 1 µg/mL (≈ 1.2 µM)
E. aerogenes DSM-30053
  MIC: 1 µg/mL (≈ 1.2 µM)

## CC(C)Oc1c(NC(=O)c2ccc(NC(=O)[C@H](CC(N)=O)NC(=O)c3ccc(NC(=O)c4ccc([N+](=O)[O-])cc4)cc3)cc2)ccc(C(=O)Nc2ccc(C(=O)O)cc2)c1O [Compound 4]
E. coli WT DSM-1116
  MIC: 1 µg/mL (≈ 1.2 µM)
P. aeruginosa WT PA14; PA14
  MIC P. aeruginosa WT: >64 µg/mL
P. aeruginosa WT PA14
  MIC: > 64 µg/mL
S. aureus ATCC29213
  MIC: 1 µg/mL (≈ 1.2 µM)
[8]
  pKa: < 8
E. coli ΔtolC
  MIC: 0.125 µg/mL (≈ 0.15 µM)
E. coli gyrase [2]
  IC50: 0.11 µM
[5]
  MIC: 1 µg/mL (≈ 1.2 µM)

## CC(C)Oc1c(NC(=O)c2ccc(NC(=O)c3ccc(NC(=O)[C@H](CC(N)=O)NC(=O)c4ccc(NC(=O)c5ccc(C#N)cn5)cc4)cc3)c(OC(C)C)c2O)ccc(C(=O)O)c1O [Compound 80]
S. marcescens DSM-30121
  MIC: > 64 µg/mL
[3]
  MIC: > 64 µg/mL
E. coli WT DSM-1116
  MIC: 0.06 µg/mL (≈ 0.0677 µM)
[4]
  MIC: > 64 µg/mL
P. aeruginosa WT PA14
  MIC: > 64 µg/mL
A. baumannii DSM-30008
  MIC: 0.25 µg/mL (≈ 0.282 µM)
E. cloacae DSM-30054
  MIC: > 64 µg/mL
S. aureus ATCC29213
  MIC: ≤ 0.03 µg/mL
E. coli ΔtolC
  MIC: ≤ 0.03 µg/mL
E. faecalis ATCC-29212
  MIC: ≤ 0.03 µg/mL
E. coli WT-3
  MIC: 0.5 µg/mL (≈ 0.564 µM)
[5]
  MIC: 0.5 µg/mL (≈ 0.564 µM)
E. aerogenes DSM-30053
  MIC: 1 µg/mL (≈ 1.13 µM)

## C/C(=C\c1ccc(O)cc1)C(=O)Nc1ccc(C(=O)N[C@@H](CC(N)=O)C(=O)Nc2ccc(C(=O)Nc3ccc(C(=O)Nc4ccc(C(=O)O)cc4)c(O)c3OC(C)C)cc2)cc1 [Compound 45]
S. marcescens DSM-30121
  MIC: 64 µg/mL (≈ 75.9 µM)
[3]
  MIC: 2 µg/mL (≈ 2.37 µM)
[4]
  MIC: > 64 µg/mL
E. cloacae DSM-30054
  MIC: > 64 µg/mL
P. mirabilis DSM-4479
  MIC: 2 µg/mL (≈ 2.37 µM)
K. pneumoniae DSM-30104
  MIC: > 64 µg/mL
E. coli WT-3
  MIC: 0.125 µg/mL (≈ 0.148 µM)
E. aerogenes DSM-30053
  MIC: 1 µg/mL (≈ 1.19 µM)
